{"source": "patent US5593970A", "about": "“Heterocyclic anthracycline analogs” (priority 1994, dated 1997)", "key": {"bacteria and fungi": {"system": "bacteria and fungi", "details": "cited from earlier work"}, "tumor": {"system": "tumor", "details": "cited from earlier work"}, "tumor cell lines": {"system": "tumor cell lines", "assay": "Tumor clonogenic assay, overall", "assay_type": "cell-based", "description": "For the IN VITRO test, we chose a tumor clonogenic assay which measures the ability of tumoral cells to form colonies (multicellular growth units) as a result of cell division in semisolid agar support (2,3). A more elaborate version of this fundamental assay, the soft agar colony formation disk diffusion assay was used. This assay defines the relative activity of one particular drug versus a tumoral cell line type. The effect of the test drug against tumoral cells could be measured by its inhibitory capacity against colony formation after the delivery of the compound, in different concentrations on an filter disk(4).\nA modified technique of this assay was used in order to investigate the antiproliferative activity of candidate compounds. Tumoral cells from solid tumors and ascitic lines were plated separately in a two layer agar matrix. Cell lines to be tested were suspended in an upper layer of 0.4% Noble agar (Difco#00142-01) in RPMI-1066 (Gibco#3201875) at a yield varying between 10^4 to 2×10^5 cells per 60 mm Petri dish. Plating efficiency was determined for each line in order to achieve an optimal number of colonies per dish. Plates were examined before drug administration to confirm a uniform dispersion of single cells. The bottom layer consisted of 0.8% Noble agar, 0.8% Tryptic Soy Broth (difco#0037001)in CMRL-1066/Fischer's. The bottom layers were used within 2 and 9 days of preparation. Plated dishes (bottom layer of agar, upper layer of cells and administered drug were incubated in humidified atmosphere at 37° C., 5% CO2 for 10-20 days depending upon the time necessary to observe adequate colonies (defined as a cell aggregate of more than 50 cells) both control and drug inhibited. Drugs were administered on a paper filter disk (Whatman No. 1) of 6.5 mm diameter placed on the upper layer at 1/3 distance from the edge of the dish. The anti-clonogenic activity of the compounds was measured as the zone of inhibition from the disk edge to the most proximal colonies. This zone of inhibition was checked on an inverted microscope (40×) and was measured with a micrometer mounted in the eyepiece. The ocular micrometer was calibrated with a stage micrometer set for a particular combination of ocular and objective lenses.\n200 units of activity are equivalent to 6.5 mm distance from the disk edge to the first colonies (5). […] We made a modification of the initial technique by not plating a solid tumor and a leukemia simultaneously in the same Petri dish. Anti-clonogenic tests performed on leukemia cell line have helped in the discovery of the majority of current clinically used cytostatic drugs. Our tests on solid tumor lines (animal or human) may help define active compounds with solid tumor specificity. This specific activity would be indicated by a higher level of cloning inhibition in solid tumors versus leukemias (6)."}, "MCF7/ADR": {"system": "MCF7/ADR", "assay": "Soft agar colony formation disk diffusion assay", "assay_type": "cell-based, human", "description": "(§1) A more elaborate version of this fundamental assay, the soft agar colony formation disk diffusion assay was used. This assay defines the relative activity of one particular drug versus a tumoral cell line type. The effect of the test drug against tumoral cells could be measured by its inhibitory capacity against colony formation after the delivery of the compound, in different concentrations on an filter disk(4). A modified technique of this assay was used in order to investigate the antiproliferative activity of candidate compounds. Tumoral cells from solid tumors and ascitic lines were plated separately in a two layer agar matrix. Cell lines to be tested were suspended in an upper layer of 0.4% Noble agar (Difco#00142-01) in RPMI-1066 (Gibco#3201875) at a yield varying between 10^4 to 2×10^5 cells per 60 mm Petri dish. Plating efficiency was determined for each line in order to achieve an optimal number of colonies per dish. Plates were examined before drug administration to confirm a uniform dispersion of single cells. The bottom layer consisted of 0.8% Noble agar, 0.8% Tryptic Soy Broth (difco#0037001)in CMRL-1066/Fischer's. The bottom layers were used within 2 and 9 days of preparation. Plated dishes (bottom layer of agar, upper layer of cells and administered drug were incubated in humidified atmosphere at 37° C., 5% CO2 for 10-20 days depending upon the time necessary to observe adequate colonies (defined as a cell aggregate of more than 50 cells) both control and drug inhibited. Drugs were administered on a paper filter disk (Whatman No. 1) of 6.5 mm diameter placed on the upper layer at 1/3 distance from the edge of the dish. The anti-clonogenic activity of the compounds was measured as the zone of inhibition from the disk edge to the most proximal colonies. This zone of inhibition was checked on an inverted microscope (40×) and was measured with a micrometer mounted in the eyepiece. The ocular micrometer was calibrated with a stage micrometer set for a particular combination of ocular and objective lenses. […] We made a modification of the initial technique by not plating a solid tumor and a leukemia simultaneously in the same Petri dish. Anti-clonogenic tests performed on leukemia cell line have helped in the discovery of the majority of current clinically used cytostatic drugs. Our tests on solid tumor lines (animal or human) may help define active compounds with solid tumor specificity. […] HUMAN TUMORS. […] LS180 (13) and BE1(14) were obtained from the Oncology Dept. of the Montreal General Hospital. […] Cell lines were routinely passaged twice a week by trypsinization and maintained in 25, or 75-sq. cm Falcon Plastic flasks at 37° C., 5% CO2 in humidified atmosphere. Both compounds were dissolved in DMSO (1 mg/100 ul) and brought to final volume (250 ul) with Millipore deionized sterile water. Further dilutions were made with […] volume of 25 ul of freshly prepared solution was placed on the filter disk and allowed to dry."}, "MCF7": {"system": "MCF7", "assay": "Soft agar colony formation disk diffusion assay", "assay_type": "cell-based, human", "description": "as §1"}}, "data": [{"smiles": "C[C@@H]1O[C@@H](CC(=O)O)CC2=C1C(=O)c1c(O)cccc1C2=O", "note": "[nanaomycin A]", "values": [{"measurement": "antibacterial and antifungal activity", "setting": "bacteria and fungi", "value": "potent antibacterial as well as antifungal activity"}]}, {"smiles": "CC1OC2CC(=O)OC2C2=C1C(=O)c1c(O)c3c(c(O)c1C2=O)C1CC(O)C3(O)C(C)O1", "note": "(stereo not shown) [Granaticin]", "values": [{"measurement": "antitumor activity", "setting": "tumor", "value": "antitumor activity"}]}, {"smiles": "COC(=O)[C@H]1CC2=C(C(=O)c3cc4ccccc4c(O)c3C2=O)[C@H](O[C@H]2C[C@H](NC(=O)C(F)(F)F)[C@H](O)[C@H](C)O2)O1", "note": "[BCH-706]", "values": [{"measurement": "activity and specificity in words", "setting": "tumor cell lines", "value": "most active"}, {"measurement": "cross resistance with adriamycin, MCF7/ADR vs MCF7", "setting": "MCF7/ADR", "value": "lack of cross resistance with adriamycin"}, {"measurement": "zone of inhibition", "setting": "MCF7/ADR; 10 μg/DISK", "value": "91.5 ± 8.6", "unit": "Zone Units"}, {"measurement": "zone of inhibition", "setting": "MCF7/ADR; 100 μg/DISK", "value": 183.0, "unit": "Zone Units"}, {"measurement": "zone of inhibition", "setting": "MCF7; 10 μg/DISK", "value": "103.7 ± 25.5", "unit": "Zone Units"}, {"measurement": "zone of inhibition", "setting": "MCF7; 100 μg/DISK", "value": "213.5 ± 43.1", "unit": "Zone Units"}]}, {"smiles": "CC(=O)N1Cc2c(O)c3c(c(O)c2C(O[C@H]2C[C@H](NC(=O)C(F)(F)F)[C@H](O)[C@H](C)O2)C1)C(=O)c1ccccc1C3=O", "note": "(stereo partly shown) [N-(trifluoroacetyl)-4-demethoxy-9-azadaunorubicin]", "values": [{"measurement": "antitumor activity", "setting": "tumor", "value": "no antitumor activity"}]}, {"smiles": "CC1OC2OC(=O)OC2C2=C1C(=O)c1c(O)cccc1C2=O", "note": "(stereo not shown) [kalafungin]", "values": [{"measurement": "antibacterial and antifungal activity", "setting": "bacteria and fungi", "value": "potent antibacterial as well as antifungal activity"}]}]}
